How the values were obtained:
MMP-2 [1] = assay: Substrate phage display with NGS: relative probability (RP) of P3-P1' tetramer clusters; format: biochemical, human; conditions: MMP2;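 further: ratio of tetramer probability after protease selection to that in naive phage library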
MMP-9 = MMP-9 (Homo sapiens, UniProt P14780); assay: K(obs) of individual phage substrates (set of 1369); format: biochemical; conditions: MMP9
MMP-2 [2] = biological target: T1, MMP-2 (Homo sapiens, UniProt P08253); assay: as above; format: biochemical; conditions: MMP2
T1 sequence (P08253 110-660): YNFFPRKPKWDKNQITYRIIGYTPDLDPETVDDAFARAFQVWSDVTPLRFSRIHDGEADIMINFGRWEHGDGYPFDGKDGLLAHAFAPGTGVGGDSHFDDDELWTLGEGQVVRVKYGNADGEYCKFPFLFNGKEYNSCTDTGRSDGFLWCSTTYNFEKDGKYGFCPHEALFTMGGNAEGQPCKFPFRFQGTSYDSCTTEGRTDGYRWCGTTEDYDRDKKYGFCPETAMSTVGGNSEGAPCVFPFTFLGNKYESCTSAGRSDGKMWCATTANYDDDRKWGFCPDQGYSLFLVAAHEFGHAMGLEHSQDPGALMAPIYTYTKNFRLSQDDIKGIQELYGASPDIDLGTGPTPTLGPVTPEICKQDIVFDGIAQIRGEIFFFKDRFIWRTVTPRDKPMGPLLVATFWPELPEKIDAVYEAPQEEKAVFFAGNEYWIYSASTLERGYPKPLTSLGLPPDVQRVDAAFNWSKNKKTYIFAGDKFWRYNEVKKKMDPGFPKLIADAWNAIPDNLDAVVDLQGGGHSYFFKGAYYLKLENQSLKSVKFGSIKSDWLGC

[3] = RP of the P3-P1' tetramer contained in the substrate (substrate phage display with NGS)
[4] = individual phage substrates, set of 1369 peptides, hyphen in sequence marks cleavage position
[5] = individual phage substrates, set of 1369 peptides, cleavage position marked by hyphen in sequence
[6] = RP of the P3-P1' tetramer contained in the substrate
[7] = individual phage substrate of the set of 1369 peptides, dash in the sequence marks the cleavage position
[8] = individual phage substrate of the set of 1369 peptides, cleavage position marked by '-'

MMP-9, sequence (P14780 94-707): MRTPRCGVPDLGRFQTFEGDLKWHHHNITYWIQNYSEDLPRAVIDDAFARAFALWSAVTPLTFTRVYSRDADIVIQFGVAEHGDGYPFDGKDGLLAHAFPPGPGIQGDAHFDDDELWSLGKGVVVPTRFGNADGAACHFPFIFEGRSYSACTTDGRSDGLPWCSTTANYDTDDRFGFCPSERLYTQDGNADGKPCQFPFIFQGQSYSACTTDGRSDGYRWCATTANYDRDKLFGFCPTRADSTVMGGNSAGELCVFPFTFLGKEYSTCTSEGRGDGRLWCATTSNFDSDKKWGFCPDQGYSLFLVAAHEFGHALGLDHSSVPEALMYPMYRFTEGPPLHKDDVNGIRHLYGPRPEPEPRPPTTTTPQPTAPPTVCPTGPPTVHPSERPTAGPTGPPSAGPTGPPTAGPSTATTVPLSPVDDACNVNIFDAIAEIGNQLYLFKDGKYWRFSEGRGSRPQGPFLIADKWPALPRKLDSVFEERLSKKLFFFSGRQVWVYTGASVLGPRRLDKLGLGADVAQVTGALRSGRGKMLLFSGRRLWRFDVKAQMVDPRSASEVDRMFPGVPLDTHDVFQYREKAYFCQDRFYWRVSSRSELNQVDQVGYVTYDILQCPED

Row | Substance | Kobs (MMP-9; [4]) | Kobs (MMP-2 [2]; [5]) | Kobs (MMP-9; [7]) | Kobs (MMP-2 [2]; [8]) | relative probability (RP) (MMP-2 [1]; [3]) | relative probability (RP) (MMP-2 [1]; [6])
1 | MNWES-LTASG | 0 M⁻¹ s⁻¹ | 517.582 M⁻¹ s⁻¹ |  |  | 0.6249 | 
2 | GHAYH-LTASG |  |  | 4763.33 M⁻¹ s⁻¹ | 3964.21 M⁻¹ s⁻¹ |  | 15.3364
3 | RLPWS-LTASG |  |  | 12792.1 M⁻¹ s⁻¹ | 5667.28 M⁻¹ s⁻¹ |  | 28.5684
4 | FMPSA-QTASG |  |  | 9740.44 M⁻¹ s⁻¹ | 10866.7 M⁻¹ s⁻¹ |  | 28.0379
5 | VRLNY-LTASG | 0 M⁻¹ s⁻¹ | 4763.33 M⁻¹ s⁻¹ |  |  | 12.3459 | 
6 | SGAHG-ILSTA |  |  | 3536.02 M⁻¹ s⁻¹ | 2996.69 M⁻¹ s⁻¹ |  | 8.881
7 | GKLAS-LRTAS | 84.609 M⁻¹ s⁻¹ | 10866.7 M⁻¹ s⁻¹ |  |  | 31.1996 | 
8 | SGISF-MSVTA | 0 M⁻¹ s⁻¹ | 836.403 M⁻¹ s⁻¹ |  |  | 23.3965 | 
9 | GFSAN-LKTAS |  |  | 484.315 M⁻¹ s⁻¹ | 5667.28 M⁻¹ s⁻¹ |  | 23.7816
10 | PMVRW-LTASG | 12792.1 M⁻¹ s⁻¹ | 12792.1 M⁻¹ s⁻¹ |  |  | 25.891 | 
11 | RAPLH-MTASG |  |  | 12792.1 M⁻¹ s⁻¹ | 2916.17 M⁻¹ s⁻¹ |  | 30.0095
12 | FSARS-LTASG | 4613.14 M⁻¹ s⁻¹ | 8941.32 M⁻¹ s⁻¹ |  |  | 17.186 | 
13 | QSWYG-MTASG | 3741.87 M⁻¹ s⁻¹ | 1112.44 M⁻¹ s⁻¹ |  |  | 0.05309 | 
14 | GPVYN-LRTAS |  |  | 12792.1 M⁻¹ s⁻¹ | 5269.78 M⁻¹ s⁻¹ |  | 19.1818
15 | PYPVP-FTASG |  |  | 12792.1 M⁻¹ s⁻¹ | 12792.1 M⁻¹ s⁻¹ |  | 31.1155
16 | SGWSN-LMRTA | 0 M⁻¹ s⁻¹ | 0 M⁻¹ s⁻¹ |  |  | 17.9326 | 
17 | HVWMN-LTASG |  |  | 619.843 M⁻¹ s⁻¹ | 418.952 M⁻¹ s⁻¹ |  | 0
18 | RQVRY-LTASG | 7015.91 M⁻¹ s⁻¹ | 8321.48 M⁻¹ s⁻¹ |  |  | 18.3724 | 
19 | KFWFN-LTASG |  |  | 0 M⁻¹ s⁻¹ | 0 M⁻¹ s⁻¹ |  | 0
20 | IEAWS-LTASG | 7015.91 M⁻¹ s⁻¹ | 762.325 M⁻¹ s⁻¹ |  |  | 7.006 | 

Second part, led by results:

Row | Kobs (MMP-9; [4]) | Kobs (MMP-2 [2]; [5]) | Kobs (MMP-9; [7]) | Kobs (MMP-2 [2]; [8]) | Substance | relative probability (RP) (MMP-2 [1]; [3]) | relative probability (RP) (MMP-2 [1]; [6])
21 |  |  | 12792.1 M⁻¹ s⁻¹ | 12792.1 M⁻¹ s⁻¹ | SEPFG-LTASG |  | 31.7131
22 |  |  | 12792.1 M⁻¹ s⁻¹ | 8321.48 M⁻¹ s⁻¹ | NSPLS-YTASG |  | 31.2477
23 | 551.253 M⁻¹ s⁻¹ | 10866.7 M⁻¹ s⁻¹ |  |  | QRMAS-LTASG | 31.6834 | 
24 | 0 M⁻¹ s⁻¹ | 654.784 M⁻¹ s⁻¹ |  |  | HIWQN-LTASG | 6.292 | 
25 | 56.119 M⁻¹ s⁻¹ | 12792.1 M⁻¹ s⁻¹ |  |  | LSHAW-LTASG | 27.1428 | 
26 |  |  | 1465.65 M⁻¹ s⁻¹ | 1196.62 M⁻¹ s⁻¹ | GVVLN-LETAS |  | 18.9065
27 | 292.668 M⁻¹ s⁻¹ | 171.876 M⁻¹ s⁻¹ |  |  | GVLYH-LQTAS | 4.529 | 
28 |  |  | 12792.1 M⁻¹ s⁻¹ | 12792.1 M⁻¹ s⁻¹ | MSPRW-LTASG |  | 34.1809
29 |  |  | 12792.1 M⁻¹ s⁻¹ | 12792.1 M⁻¹ s⁻¹ | GRPAD-LRTAS |  | 30.0217
30 |  |  | 619.843 M⁻¹ s⁻¹ | 12792.1 M⁻¹ s⁻¹ | HRWSA-LTASG |  | 25.8217
31 | 12792.1 M⁻¹ s⁻¹ | 12792.1 M⁻¹ s⁻¹ |  |  | SGPRP-LYHTA | 34.3303 | 
32 | 0 M⁻¹ s⁻¹ | 0 M⁻¹ s⁻¹ |  |  | GKVEY-LVTAS | 5.301 | 
33 |  |  | 12792.1 M⁻¹ s⁻¹ | 12792.1 M⁻¹ s⁻¹ | ELVRS-LTASG |  | 12.3051
34 | 12792.1 M⁻¹ s⁻¹ | 4763.33 M⁻¹ s⁻¹ |  |  | GGPIP-LWTAS | 33.1236 | 
35 |  |  | 0 M⁻¹ s⁻¹ | 1373.05 M⁻¹ s⁻¹ | SGVSF-LQQTA |  | 5.918
36 | 12792.1 M⁻¹ s⁻¹ | 12792.1 M⁻¹ s⁻¹ |  |  | SGPLG-IKSTA | 33.936 | 
37 | 12792.1 M⁻¹ s⁻¹ | 9740.44 M⁻¹ s⁻¹ |  |  | SGARS-LKGTA | 17.186 | 

— PMC7932537, “Quantitative profiling of protease specificity” (PLoS Computational Biology, 2021)
